Reference: US11111245B2, “Derivatives of N-cycloalkyl/heterocycloalkyl-4-(imidazo[1,2-a]pyridine)pyrimidin-2-amine as therapeutic agents” (Aucentra Therapeutics Pty Ltd, priority 2017, dated 2021)

Legend:
[1] = target: CDK4/D1 (Homo sapiens, UniProt P11802); assay: ADP Glo Kinase assay CDK4/D1; format: biochemical; details: CDK4D1; for remaining activity at 10 µM: compound at 10 μM, read-out: residual activity (%) at 10 μM CDK4D1; for Ki: read-out: CDK inhibition, Ki (μM) CDK4D1
How it was run: (§1)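 ADP Glo luminescence, in-house: CDK4/D1, CDK6/D3 on RB-CTF substrate (Tris pH 7.5, MgCl2, DTT, BSA); CDK9/T1 on RBER-IRStide. Reaction 40 min, 37° C after ATP addition. 10-point 1:3 series, 10 μM to 0.5 nM. IC50 by 4-parameter logistic; Ki derived using ATP Km.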

[2] = target: CDK6/D3 (Homo sapiens, UniProt Q00534); assay: ADP Glo Kinase assay CDK6/D3; format: biochemical; details: CDK6D3; for remaining activity at 10 µM: compound at 10 μM, read-out: residual activity (%) at 10 μM CDK6D3; for Ki: read-out: CDK inhibition, Ki (μM) CDK6D3
Chain of CDK6/D3 (Q00534 whole entry): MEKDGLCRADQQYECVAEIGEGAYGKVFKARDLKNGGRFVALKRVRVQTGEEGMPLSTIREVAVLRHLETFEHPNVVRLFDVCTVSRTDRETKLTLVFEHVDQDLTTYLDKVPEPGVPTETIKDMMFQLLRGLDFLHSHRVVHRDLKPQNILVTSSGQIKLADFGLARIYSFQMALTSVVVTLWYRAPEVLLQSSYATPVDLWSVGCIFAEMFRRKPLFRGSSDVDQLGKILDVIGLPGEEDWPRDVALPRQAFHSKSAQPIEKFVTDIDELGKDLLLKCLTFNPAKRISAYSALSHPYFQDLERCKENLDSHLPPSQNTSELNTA
Chain of CDK6/D3 (P30281 whole entry partner): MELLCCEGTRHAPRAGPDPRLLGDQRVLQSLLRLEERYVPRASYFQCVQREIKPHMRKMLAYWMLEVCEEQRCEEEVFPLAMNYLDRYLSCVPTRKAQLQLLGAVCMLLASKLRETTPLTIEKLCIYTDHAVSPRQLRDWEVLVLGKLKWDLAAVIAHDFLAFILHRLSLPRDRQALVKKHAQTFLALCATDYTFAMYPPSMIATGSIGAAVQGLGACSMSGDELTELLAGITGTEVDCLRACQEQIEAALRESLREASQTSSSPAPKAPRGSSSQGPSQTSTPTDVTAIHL
How it was run: as §1

[3] = target: CDK9/T1 (Homo sapiens, UniProt P50750); assay: ADP Glo Kinase assay CDK9/T1; format: biochemical; details: CDK9T1; read-out: CDK inhibition, Ki (μM) CDK9T1
Chain of CDK9/T1 (P50750 whole entry): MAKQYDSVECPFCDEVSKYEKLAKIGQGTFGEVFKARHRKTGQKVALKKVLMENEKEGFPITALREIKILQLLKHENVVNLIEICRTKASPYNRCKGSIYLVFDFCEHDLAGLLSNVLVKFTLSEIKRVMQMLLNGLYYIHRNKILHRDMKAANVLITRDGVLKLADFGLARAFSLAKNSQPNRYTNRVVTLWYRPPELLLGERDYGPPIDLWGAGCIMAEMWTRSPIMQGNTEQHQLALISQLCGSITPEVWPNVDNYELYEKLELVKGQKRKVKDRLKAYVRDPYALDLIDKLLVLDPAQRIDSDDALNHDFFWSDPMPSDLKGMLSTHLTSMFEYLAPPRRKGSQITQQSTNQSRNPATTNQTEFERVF
Chain of CDK9/T1 (O60563 whole entry partner): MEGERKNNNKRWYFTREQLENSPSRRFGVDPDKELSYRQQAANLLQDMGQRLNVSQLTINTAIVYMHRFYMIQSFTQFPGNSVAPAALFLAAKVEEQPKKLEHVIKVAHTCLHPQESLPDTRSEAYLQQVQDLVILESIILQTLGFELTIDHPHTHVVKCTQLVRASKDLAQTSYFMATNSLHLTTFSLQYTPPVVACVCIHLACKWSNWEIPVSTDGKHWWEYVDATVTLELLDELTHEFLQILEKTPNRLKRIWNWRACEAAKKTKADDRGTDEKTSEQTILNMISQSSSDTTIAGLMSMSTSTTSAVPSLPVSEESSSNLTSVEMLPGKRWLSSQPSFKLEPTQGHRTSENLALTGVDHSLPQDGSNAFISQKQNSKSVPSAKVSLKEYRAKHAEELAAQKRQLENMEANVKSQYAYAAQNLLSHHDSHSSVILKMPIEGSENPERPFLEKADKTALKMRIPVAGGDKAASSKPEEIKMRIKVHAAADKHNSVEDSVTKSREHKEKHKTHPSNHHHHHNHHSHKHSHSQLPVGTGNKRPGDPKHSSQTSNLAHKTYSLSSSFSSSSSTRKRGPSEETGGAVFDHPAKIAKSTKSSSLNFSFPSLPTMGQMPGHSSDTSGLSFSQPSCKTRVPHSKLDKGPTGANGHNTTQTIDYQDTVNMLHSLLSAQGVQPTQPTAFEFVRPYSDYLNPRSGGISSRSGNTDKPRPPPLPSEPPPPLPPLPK
How it was run: as §1

[4] = target: T1, CDKs and other kinases (Homo sapiens, UniProt P06493); assay: Radiometric kinase assay (Eurofins Pharma Discovery or Reaction Biology Corporation Kinase Profiler); format: biochemical; details: CDK1B; for remaining activity at 10 µM: compound at 10 μM, read-out: residual activity (%) at 10 μM CDK1B; for Ki: read-out: CDK inhibition, Ki (μM) CDK1B
T1 construct: other: CDK1B; residual activity (%) at 10 μM CDK1B; compound at 10 μM
T1 sequence (P06493 whole entry): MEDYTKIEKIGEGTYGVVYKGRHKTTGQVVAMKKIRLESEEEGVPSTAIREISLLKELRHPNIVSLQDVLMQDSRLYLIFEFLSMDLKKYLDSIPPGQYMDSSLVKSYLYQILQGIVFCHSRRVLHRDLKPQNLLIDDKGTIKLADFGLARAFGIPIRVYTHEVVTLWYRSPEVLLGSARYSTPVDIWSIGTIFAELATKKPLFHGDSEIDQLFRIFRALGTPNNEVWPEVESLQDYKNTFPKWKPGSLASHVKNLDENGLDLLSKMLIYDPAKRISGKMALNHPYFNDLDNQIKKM
How it was run: (§2)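 Other CDKs and further kinases were profiled externally by radiometric assay. In-house ADP Glo assays covered CDK4/D1 and CDK6/D3 (RB-CTF substrate, pH 7.5 Tris buffer with MgCl2, DTT, BSA) and CDK9/T1 (RBER-IRStide substrate), 40 min at 37° C.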

[5] = target: T2, CDKs and other kinases (Homo sapiens, UniProt P24941); assay: as above; format: biochemical; details: CDK2A; for remaining activity at 10 µM: compound at 10 μM, read-out: residual activity (%) at 10 μM CDK2A; for Ki: read-out: CDK inhibition, Ki (μM) CDK2A
T2 construct: other: CDK2A; residual activity (%) at 10 μM CDK2A; compound at 10 μM
How it was run: as §2

[6] = target: T3, CDKs and other kinases (Homo sapiens, UniProt P50613); assay: as above; format: biochemical; details: CDK7H; for remaining activity at 10 µM: compound at 10 μM, read-out: residual activity (%) at 10 μM CDK7H; for Ki: read-out: CDK inhibition, Ki (μM) CDK7H
T3 construct: other: CDK7H; residual activity (%) at 10 μM CDK7H; compound at 10 μM
T3 sequence (P50613 whole entry): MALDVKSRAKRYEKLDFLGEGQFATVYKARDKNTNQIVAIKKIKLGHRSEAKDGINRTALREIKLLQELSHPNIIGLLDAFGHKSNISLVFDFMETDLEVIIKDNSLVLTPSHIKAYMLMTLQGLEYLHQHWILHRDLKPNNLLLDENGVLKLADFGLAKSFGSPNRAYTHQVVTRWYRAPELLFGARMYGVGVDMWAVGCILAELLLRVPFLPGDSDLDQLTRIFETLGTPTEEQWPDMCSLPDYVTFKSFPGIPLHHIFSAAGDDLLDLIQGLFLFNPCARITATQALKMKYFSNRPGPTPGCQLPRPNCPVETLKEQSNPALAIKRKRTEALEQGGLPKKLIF
How it was run: as §2

[7] = tested on: leukemia cell lines; assay: Resazurin cell viability assay on leukemia cell lines (72 h growth inhibition, GI50); format: cell-based; details: Homo sapiens, MV4-11 cells
How it was run: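 Cells were exposed to compound, then viability was read by MTT (solid tumour lines) or resazurin reduction (leukaemia lines). Non-linear regression gave the concentration inhibiting 50% of cell growth.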

Chain of CDK4/D1 (P11802 whole entry): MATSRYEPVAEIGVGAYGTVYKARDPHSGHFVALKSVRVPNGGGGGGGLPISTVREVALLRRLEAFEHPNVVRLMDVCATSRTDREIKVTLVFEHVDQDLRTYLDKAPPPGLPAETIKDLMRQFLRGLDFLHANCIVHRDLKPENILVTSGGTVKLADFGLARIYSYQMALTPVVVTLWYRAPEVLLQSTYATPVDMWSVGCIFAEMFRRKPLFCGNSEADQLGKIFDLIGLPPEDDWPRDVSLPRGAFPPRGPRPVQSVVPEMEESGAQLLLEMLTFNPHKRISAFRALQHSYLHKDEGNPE
Chain of CDK4/D1 (P24385 whole entry partner): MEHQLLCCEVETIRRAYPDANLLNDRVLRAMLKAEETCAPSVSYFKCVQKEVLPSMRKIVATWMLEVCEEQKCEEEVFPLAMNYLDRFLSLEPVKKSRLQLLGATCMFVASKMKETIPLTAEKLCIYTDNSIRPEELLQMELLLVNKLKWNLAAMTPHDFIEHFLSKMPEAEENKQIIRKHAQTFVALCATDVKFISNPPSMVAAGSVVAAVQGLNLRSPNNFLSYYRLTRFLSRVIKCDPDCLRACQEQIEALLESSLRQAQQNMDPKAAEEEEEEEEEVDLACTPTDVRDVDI

Compound	residual activity at 10 µM [1] [%]	remaining activity at 10 µM [2] [%]	Ki [3] [µM]	remaining activity at 10 µM [4] [%]	remaining activity at 10 µM [5] [%]	remaining activity at 10 µM [6] [%]	GI50 [7] [µM]	remaining activity at 10 µM [1] [%]	Ki [4] [µM]	Ki [5] [µM]	Ki [6] [µM]	Ki [1] [µM]	Ki [2] [µM]
Cc1cnc(N[C@H]2CC[C@H](N)CC2)nc1-c1cnc2ccc(-c3ccc(CN4CCOCC4)cc3)cn12 [Compound 60, (1r,4r)-N^1-(5-Methyl-4-(6-(4-(morpholinomethyl)phenyl)imidazo[1,2-a]pyridin-3-yl)pyrimidin-2-yl)cyclohexane-1,4-diamine]	115	89	0.41	57	62	37	0.057 ± 0.006						
Cc1cnc(N[C@H]2CC[C@H](N)CC2)nc1-c1cnc2ccc(Nc3cnccn3)cn12 [Compound 70, (1r,4r)-N^1-(5-Methyl-4-(6-(pyrazin-2-ylamino)imidazo [1,2-a]pyridin-3-yl)pyrimidin-2-yl)cyclohexane-1,4-diamine]		70	0.62				0.212 ± 0.104	31	4.32	1.42	3.28		
COc1cccc(-c2ccc3ncc(-c4nc(N[C@H]5CC[C@H](N)CC5)ncc4C)n3c2)c1 [Compound 57, (1r,4r)-N^1-(4-(6-(3-Methoxyphenyl)imidazo[1,2-a]pyridin-3-yl)-5-methylpyrimidin-2-yl)cyclohexane-1,4-diamine]		39	0.069	47	31	17	0.067 ± 0.014	45					
Cc1cnc(N[C@H]2CC[C@H](N)CC2)nc1-c1cnc2ccc(-c3ccoc3)cn12 [Compound 63, (1r,4r)-N^1-(4-(6-(Furan-3-yl)imidazo[1,2-a]pyridin-3-yl)-5-methylpyrimidin-2-yl)cyclohexane-1,4-diamine]		29	0.054	18	6	18	0.095 ± 0.031	38					
N[C@H]1CC[C@H](Nc2ncc(Cl)c(-c3cnc4ccc(C(F)(F)F)cn34)n2)CC1 [Compound 13, (1r,4r)-N^1-(5-Chloro-4-(6-(trifluoromethyl)imidazo[1,2-a]pyridin-3-yl)pyrimidin-2-yl)cyclohexane-1,4-diamine]		59	0.024				0.022 ± 0.002	0	0.329	0.063	0.052		
N[C@H]1CC[C@H](Nc2ncc(Cl)c(-c3cnc4ccc(Br)cn34)n2)CC1 [Compound 12, (1r,4r)-N^1-(4-(6-Bromoimidazo[1,2-a]pyridin-3-yl)-5-chloropyrimidin-2-yl)cyclohexane-1,4-diamine]		41	0.008				0.006 ± 0.001	4	0.121	0.013	0.032		
Cc1cnc(N[C@H]2CC[C@H](N)CC2)nc1-c1cnc2ccc(-c3cncnc3)cn12 [Compound 39, (1r,4r)-N^1-(5-Methyl-4-(6-(pyrimidin-5-yl)imidazo[1,2-a]pyridin-3-yl)pyrimidin-2-yl)cyclohexane-1,4-diamine]		100	0.165				0.082 ± 0.02	36	7.36	4.74	5.6		
Cc1cnc(N[C@H]2CC[C@@H](N)CC2)nc1-c1cnc2ccc(-c3ccccc3)cn12 [Compound 91, (1s,4s)-N^1-(5-Methyl-4-(6-phenylimidazo[1,2-a]pyridin-3-yl)pyrimidin-2-yl)cyclohexane-1,4-diamine]		41	0.082	5	7	19	0.014 ± 0.007	17					
N[C@H]1CC[C@H](Nc2ncc(Cl)c(-c3cnc4c(Br)cc(C(F)(F)F)cn34)n2)CC1 [Compound 14, (1r,4r)-N^1-(4-(8-Bromo-6-(trifluoromethyl)imidazo[1,2-a]pyridin-3-yl)-5-chloropyrimidin-2-yl)cyclohexane-1,4-diamine]		17	0.007				0.368 ± 0.129	3	0.755	0.115	0.04		
Cc1noc(C)c1-c1ccc2ncc(-c3nc(N[C@H]4CC[C@H](N)CC4)ncc3Cl)n2c1 [Compound 83, (1r,4r)-N^1-(5-Chloro-4-(6-(3,5-dimethylisoxazol-4-yl)imidazo[1,2-a]pyridin-3-yl)pyrimidin-2-yl)cyclohexane-1,4-diamine]		80	0.065				0.052 ± 0.011	27	2.56	0.91	0.58		
N[C@H]1CC[C@H](Nc2ncc(F)c(-c3cnc4ccc(-c5ccc(CN6CCOCC6)cc5)cn34)n2)CC1 [Compound 47, (1r,4r)-N^1-(5-Fluoro-4-(6-(4-(morpholinomethyl)phenyl)imidazo[1,2-a]pyridin-3-yl)pyrimidin-2-yl)cyclohexane-1,4-diamine]		16	0.004	5	2		0.003 ± 0.001	4			0.075		
Fc1cnc(N[C@H]2CC[C@H](NC3CCOCC3)CC2)nc1-c1cnc2ccccn12 [Compound 33, (1r,4r)-N^1-(5-Fluoro-4-(imidazo[1,2-a]pyridin-3-yl)pyrimidin-2-yl)-N4-(tetrahydro-2H-pyran-4-yl) cyclohexane-1,4-diamine]		12	0.022	11	13	7	0.004 ± 0.001	7					
N[C@H]1CC[C@H](Nc2ncc(Cl)c(-c3cnc4ccc(-c5cccnc5)cn34)n2)CC1 [Compound 35, (1r,4r)-N^1-(5-Chloro-4-(6-(pyridin-3-yl)imidazo[1,2-a]pyridin-3-yl)pyrimidin-2-yl)cyclohexane-1,4-diamine]			0.007				0.011 ± 0.002		0.88	0.26	0.27	0.79	0.394
Cc1cnc(N[C@H]2CC[C@H](N)CC2)nc1-c1cnc2ccc(-c3ncccc3F)cn12 [Compound 30, (1r,4r)-N^1-(4-(6-(3-Fluoropyridin-2-yl)imidazo[1,2-a]pyridin-3-yl)-5-methylpyrimidin-2-yl)cyclohexane-1,4-diamine]		39	0.12	67	49	13	0.017 ± 0.006	17					
Cc1cnc(N[C@H]2CC[C@H](N)CC2)nc1-c1cnc2ccc(Nc3cncnc3)cn12 [Compound 115, (1r,4r)-N^1-(5-Methyl-4-(6-(pyrimidin-5-ylamino)imidazo [1,2-a]pyridin-3-yl)pyrimidin-2-yl)cyclohexane-1,4-diamine]			0.006				0.552 ± 0.166		1.35	0.14	4	1.24	1.11
CC(=O)NC1CCC(Nc2ncc(C)c(-c3cnc4ccc(Nc5cncnc5)cn34)n2)CC1 (centres unmarked) [Compound 113, N-(4-((5-Methyl-4-(6-(pyrimidin-5-ylamino)imidazo [1,2-a]pyridin-3-yl)pyrimidin-2-yl)amino)cyclohexyl) acetamide]		39	1.01				> 10	28	0.82	0.45	2.59		
COC(=O)CN[C@H]1CC[C@H](Nc2ncc(F)c(-c3cnc4ccccn34)n2)CC1 [Compound 15, Methyl ((1r,4r)-4-((5-fluoro-4-(imidazo[1,2-a]pyridin-3-yl)pyrimidin-2-yl)amino)cyclohexyl)glycinate]		13	0.014				0.05 ± 0.009	0	0.07	0.027	0.15		
